Results: patent US20120232062A1, “AZAINDAZOLES TO TREAT FLAVIVIRIDAE VIRUS INFECTION” (EIGER BIOPHARMACEUTICALS, INC., priority 2009, published 2012)
pEC50: −log10 of the molar value. Where two headings read alike, the source gives them in different places.

What was measured:
[1] = Caco-2 permeability testing; format: in vitro ADME, human; settings: human, 90 min; for Papp A→B at 90 min, 10 µM: read-out: Permeability (second figure of Efflux/permeability), Papp (A-B); for Papp B→A at 90 min, 10 µM: read-out: Efflux (first figure of Efflux/permeability), Papp (B-A)
Excerpt: Intestinal epithelium permeability is a critical characteristic that determines the rate and extent of human absorption and affects bioavailability of a drug candidate. Poor intestinal permeability leads to limited absorption. Generally, higher absorption is preferred. The Caco-2 cell line is a human colon adeno-carcinoma cell line that resembles the epithelial lining of the human small intestine. Several transport proteins that are expressed in human intestinal epithelium are also expressed in the Caco-2 cell model. Some transporter proteins are efflux systems which mediate the secretion of compounds from inside the cell back to the apical lumen (representative of the intestinal lumen), limiting overall absorption. In a permeability assay, the apparent permeability coefficient is measured between the apical to basolateral sides of a cell monolayer, Papp (A-B), and the basolateral to the apical side, Papp (B-A). Papp (A-B)<2×10^−6 cm/s is predictive of low permeability to the basolateral side, 2×10^−6 cm/s<Papp (A-B)<20×10^−6 cm/s is predictive of medium permeability, and Papp (A-B)>20×10^−6 cm/s is predictive of high permeability. In the B-A permeability assay, Papp (B-A) is measured and compounds evaluated for efflux potential. Together, these assay results are reported as a ratio of Papp (B-A) to Papp (A-B). Papp (B-A)/Papp (A-B)>3 are likely to be transported by one of the efflux systems, and have poor absorption. Papp (B-A)/Papp (A-B)<3 are likely to show reasonable intestinal absorption. An in vitro drug absorption assay suitable for use in predicting intestinal absorption of the compounds useful in the methods of the invention is described in this example. The embodiments of this assay described in this example were developed by Shanghai ChemPartner Co., Ltd., a corporation of China with its principal office located at 720 Cailun Road, Building No. 3, Shanghai 201203, China.
Caco-2 (ATCC, catalog No. HTB-37™) cells are cultured in growth medium (MEM+10% FBS+1% NEAA). The growth medium is prepared by adding 50 mL FBS and 5 mL NEAA to 445 mL of MEM or by adjusting the final volume according to actual needs. Trypsin-EDTA (Invitrogen, Cat #25200-072) is also used.
Hanks Balanced Salt Solution (HBSS, Invitrogen, Cat #14025-092) with 25 mM HEPES, pH 7.4, HBSS buffer with 0.2% DMSO (50 μL DMSO into 25 ml HBSS buffer), and HBSS buffer with 0.4% DMSO (100 μL DMSO into 25 ml HBSS buffer) are used.
10 mM stock solutions of a compound is prepared in DMSO and Lucifer Yellow in assay buffer using the formula (Actual Weight/Molecular Weight)/mL solvent=10 mM. Erythromycin, Metoprolol, and Atenolol are used as reference compounds. Donor solutions (10 μM for compounds and 5 μM for Lucifer Yellow) are prepared. For A-B, 4 μL of 10 mM compound stock solution and 2 μL of 10 mM Lucifer Yellow stock solution are loaded into 4 mL of HBSS buffer, and centrifuged (5 min, 4000 rpm) to precipitate undissolved particles. Supernatants are collected for compound dosing. For B-A, 4 μL (compounds) of 10 mM compound stock solution is added to 4 mL HBSS buffer with 0.2% DMSO, and centrifuged (5 min, 4000 rpm) to precipitate undissolved particles. Supernatants are collected for compound dosing.
Receiver solutions are prepared. For A-B, the solution is HBSS buffer with 0.4% DMSO. For B-A, 2 μL of 10 mM Lucifer Yellow stock solution is added to 4 mL of HBSS buffer with 0.2% DMSO. Compound solutions are prepared for standard curve (3 μM/1 μM/0.2 μM/0.04 μM/0.01 μM/0.005 μM):
1× solution: 3 μL of 20× solution (0.1-60 μM)+57 μL 0.4% DMSO HBSS+60 μL acetonitrile (ACN) with internal standard (IS, 200 ng/mL Osalmid). The assay was performed as described below
Stock cultures are maintained in MEM+10% FBS+1% NEAA, grown in 75 cm^2 tissue culture treated flasks and split (passed) 2 times weekly to maintain desired confluence. For maintenance passage, trypsinized cells are routinely distributed into new flasks at a standard passage ratio of 1:4. […]

HCV genotype 1b = experiment: HCV 1b replicon luciferase assay; format: cell-based; settings: Table 1, Huh7 HCV 1b replicon, luciferase reporter, 48 hours, read-out: 1b EC50
Procedure, shortened: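 Luminescence (Steady-Glo) served as the replication read-out after 48 h compound exposure of 1b replicon-luciferase Huh7 cells seeded at 10k/well. Dosing used 5-fold serial dilutions, 10 concentrations, top 25 μM final, 0.1% DMSO, duplicates.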

SMILES | Papp A→B at 90 min, 10 µM ([1]; Caco-2, pH 7.4, Caco-2, A-B) [×10⁻⁶ cm/s] | Papp B→A at 90 min, 10 µM ([1]; Caco-2, pH 7.4, Caco-2, B-A) [×10⁻⁶ cm/s] | pEC50 (HCV genotype 1b; Hepatitis C virus, Huh-7, 48 h) | pEC50 (HCV genotype 1b) | Papp A→B at 90 min, 10 µM ([1]; pH 7.4, Caco-2, A-B) [×10⁻⁶ cm/s] | Papp B→A at 90 min, 10 µM ([1]; pH 7.4, Caco-2, B-A) [×10⁻⁶ cm/s]
Cn1nc(-c2cnc(C(=O)NCc3cccs3)s2)c2ccc(N3CCCCCC3)nc21 [compound 1129] | 6 | 4 | 6.08 | – | – | –
Cn1nc(C(=O)NCc2cccs2)c2cc(N3CCCCC3)cnc21 [compound 1146] | 22 | 21 | 5.12 | – | – | –
CCC(CC)Oc1ccc2c(C(=O)NC3CCN(CC4CCCCC4)CC3)nn(C)c2n1 [compound 1074] | 6.6 | 1.6 | 6.06 | – | – | –
Cn1nc(C(=O)NC2CCN(CC3CCCCC3)CC2)c2ccc(N3CCCCCCC3)cc21 [compound 1150] | 1.4 | 5.7 | 6.22 | – | – | –
Cn1nc(C(=O)NC2CCN(CCN3CCOCC3)CC2)c2ccc(NC3CCCCCCC3)nc21 [compound 1471] | 10.9 | 9.6 | 6.06 | – | – | –
Cn1nc(C(=O)NC2CCN(CC3CCOCC3)CC2)c2ccc(N3CCCCCC3)nc21 [compound 1072] | 5.4 | 4.6 | 5.60 | – | – | –
Cn1nc(C(=O)NC2CCN(CCN3CCCC3)CC2)c2ccc(NC3CCCCCCC3)nc21 [compound 1469] | 0.9 | 2.9 | 6.60 | – | – | –
O=C(NC1CCN(CCN2CCCCC2)CC1)c1nn(CC(F)F)c2nc(N3CCCCCC3)ccc12 [compound 1488] | 3.3 | 3.5 | 6.19 | – | – | –
Cn1nc(C(=O)NC2CCN(CCN3CCC(CO)CC3)CC2)c2ccc(N3CCCCCC3)nc21 [compound 1560] | 2 | 13.1 | 6.07 | – | – | –
CC1CCCCN1CCN1CCC(NC(=O)c2nn(C)c3nc(N4CCCCCC4)ccc23)CC1 (stereo not drawn) [compound 1425] | 3 | 4 | 6.30 | – | – | –
CC(C)N1CCC(NC(=O)c2nn(C)c3nc(N4CCCCCCC4)ccc23)CC1 [compound 1307] | 9.6 | 4.2 | 6.00 | – | – | –
Cn1nc(C(=O)NC2CCN(CCN3CCCCCC3)CC2)c2ccc(N3CCCCCCC3)nc21 [compound 1310] | 1.3 | 2.1 | 6.64 | – | – | –
CC1CCC(C)N1CCN1CCC(NC(=O)c2nn(C)c3nc(N4CCCCCC4)ccc23)CC1 (stereo not drawn) [compound 1562] | 6.7 | 6.3 | 5.72 | – | – | –
Clc1ccc(Cn2nc(COCCN3CCCC3)c3ccc(N4CCCCCCC4)nc32)cc1 [compound 1203] | 7.8 | 7.3 | 5.48 | – | – | –
CN1CCC(NC(=O)c2nn(C)c3nc(N4CCCCCCC4)ccc23)CC1 [compound 1306] | 9.1 | 4.4 | 6.44 | – | – | –
COc1ccc(CN2CCC(NC(=O)c3nn(C)c4nc(N5CCCCCC5)ccc34)CC2)cc1 [compound 1116] | 0.5 | 0.3 | – | 5.89 | – | –
CCCN1CCC(NC(=O)c2nn(C)c3nc(NC4CCCCCCC4)ccc23)CC1 [compound 1475] | 5.9 | 6.3 | 6.08 | – | – | –
Cn1nc(C(=O)NC2CCN(S(C)(=O)=O)CC2)c2ccc(N3CCCCCC3)nc21 [compound 1063] | 50 | 16 | – | 5.41 | – | –
CCCC(C)CN1CCC(NC(=O)c2nn(C)c3nc(N4CCCCCCC4)ccc23)CC1 (stereo not drawn) [compound 1308] | 0.4 | 0.2 | 6.32 | – | – | –
O=C(NC1CCNCC1)c1nn(Cc2ccccc2Cl)c2nc(N3CCCCCC3)ccc12 [compound 853] | – | – | 5.54 | – | 0.4 | 0.4
CCN1CCC(NC(=O)c2nn(C)c3nc(N4CCCCCCC4)ccc23)CC1 [compound 1225] | 6.4 | 3.2 | 5.92 | – | – | –
CCC(CC)Oc1ccc2c(NC(=O)C3CC(C)(C)NC(C)(C)C3)nn(C)c2n1 [compound 950] | – | – | 5.10 | – | – | –
Cn1nc(C(=O)NC2CCN(Cc3ccccc3Cl)CC2)c2ccc(N3CCCCCC3)nc21 [compound 1037] | – | – | 5.47 | – | – | –
Cn1nc(C(=O)NC2CCNCC2)c2ccc(OCc3ccccc3-c3cccs3)nc21 [compound 1101] | – | – | 6.10 | – | – | –
Cn1nc(CCCN2CCCC(CO)C2)c2ccc(N3CCCCCCC3)nc21 (stereo not drawn) [compound 1460] | – | – | 5.57 | – | – | –
CN(c1ccc2c(C(=O)NC3CCN(CC4CCCCC4)CC3)nn(C)c2n1)C1CCCCCC1 [compound 1077] | – | – | 5.80 | – | – | –
CCC(CC)Oc1ccc2c(C(=O)NC3CCCNC3)nn(Cc3ccc(Cl)cc3)c2n1 (stereo not drawn) [compound 794] | – | – | 5.55 | – | – | –
Cc1ccc(C(=O)Nc2nn(C)c3nc(N4CCCCCC4)ccc23)s1 [compound 841] | 9.7 | 1.9 | 5.80 | – | – | –
